Laboratory results reported in patent US20150119429A1, “Iron Chelators as HIV-1 Inhibitors” (Howard University, priority 2012, published 2015).

Key:
heme oxygenase-1 gene = assay: Induction of heme oxygenase-1 expression in THP-1 cells (real-time PCR); type: cell-based, human; details: about 24 hours of treatment, DDCt, hemin at 100 μM, FIG. 6
[1] = test system: VSVG-pseudotyped pNL4-3.Luc.R-E-(HIV-1 Luc) virus; assay: One round of HIV-1-Luc replication in CEM cells (luciferase activity); type: cell-based; details: for inhibition of HIV-1 replication compared with Bp4eT: CEM cells infected 18 h, treated 24 h at 37° C., FIG. 8; for IC50: Human immunodeficiency virus 1, CCRF-CEM, CEM cells infected about 18 h, treated about 24 h at about 37° C., FIG. 2, read-out: IC50 for inhibition of HIV-1 replication
CEM cells = assay: Toxicity of iron chelators in CEM cells (calcein-AM fluorescence); type: cell-based, human; details: about 24 h at about 37° C., micromolar concentrations, FIG. 3
IkB gene = assay: Induction of IkB gene expression in 293T cells (real-time PCR); type: cell-based, human; details: about 24 hours of treatment, DDCt vs DMSO, FIG. 5
[2] = test system: cellular iron in THP-1 cells; assay: Cellular iron chelation in THP-1 cells (calcein fluorescence); type: cell-based, human; details: THP-1 cells treated with FeS, loaded with calcein-AM, versus control SIH compound, FIG. 4
Description: To assess iron chelating efficiency, human acute monocytic leukemia cell line (THP-1) cells were untreated (control) or treated with FeS for about 1 hr at about 37° C., and then loaded with iron sensor, calcein-AM for about 10 min at about 37° C. After washing with phosphate buffer solution (PBS), cells were treated with various iron chelators. In Figure. 4, calcein fluorescence was measured in a real-time PCR machine as a function of time. Fractional fluorescence (F-Fi)/Fi is proportional to the amount of chelatable iron.

Compound | expression of heme oxygenase-1 (HO-1) (heme oxygenase-1 gene) | inhibition of HIV-1 replication compared with Bp4eT [1] | IC50 [1] [nM] | toxicity (CEM cells) | expression of IkB (IkB gene) | iron chelating efficiency (fractional calcein fluorescence) [2]
CCNC(=S)N/N=C(\Cc1ccccc1)c1ccccn1 [PpYeT] | induce expression of heme oxygenase-1 (HO-1) | inhibit HIV-1 replication comparable to the effect of previously studied Bp4eT chelator | 14 | Neither PPY, nor representative PpYeT and PpYaT compounds show significant toxicity | induce expression of IkB | better than the control SIH compound
hemin [reference compound] | induced expression of HO-1 | – | – | – | – | –
C=CCNC(=S)N/N=C(\Cc1ccccc1)c1ccccn1 [PpYaT] | induce expression of heme oxygenase-1 (HO-1) | inhibit HIV-1 replication comparable to the effect of previously studied Bp4eT chelator | 14 | Neither PPY, nor representative PpYeT and PpYaT compounds show significant toxicity | induce expression of IkB | better than the control SIH compound
O=C(Cc1ccccc1)c1ccccn1 [PPY, 2-phenyl-1-pyridin-2yl-ethanone, reference compound] | – | – | – | Neither PPY, nor representative PpYeT and PpYaT compounds show significant toxicity | – | –
CCNC(=S)N/N=C(\c1ccccc1)c1ccccn1 [Bp4-eT, reference compound] | – | – | 7.5 | – | – | –
